Assay results reported in patent US20230295068A1, “NOVEL CYCLOALKENONE COMPOUND OR SALT THEREOF” (TAIHO PHARMACEUTICAL CO., LTD., priority 2020, published 2023).

Test system: ND3 neuronal cell line
Experiment: Measurement of nerve growth stimulation effect (neurite bearing assay, neurite length assay, number of cells)
Type: cell-based
Settings: relative cell number, DMSO well = 1; for viability at 1 µM / viability at 3 µM / viability at 5 µM / viability at 10 µM / viability at 30 µM / viability at 100 µM: 6 hours; for Number of cells: ND3 cells, 6 h
Protocol: To evaluate the nerve growth stimulation effect, neurite bearing assay (proportion of neurite-bearing cells) and neurite length assay (neurite length) were analyzed with reference to the method of Topalli et al. (Brain Research 1030 (2004), pp. 116-124).
An ND3 neuronal cell line (European Collection of Authenticated Cell Cultures) was seeded in a DMEM medium containing 10% fetal bovine serum (0.6×10^4 cells/1 mL) in a 24-well plate. 24 hours later, the medium of seeded cells was removed, and a solution in which the compound of the present disclosure that was sequentially diluted in dimethyl sulfoxide (DMSO) was adjusted in DIEM containing 0.1% bovine serum albumin so that the DMSO final concentration was 0.1%, was added to cells (evaluation performed in duplicate). After six hours from the addition, the proportion of neurite-bearing cells (the number of cells having a neurite longer than the diameter of the cell body/number of total cells), and the neurite length per cell were analyzed. The number of total cells, proportion of neurite-bearing cells, and neurite length per cell were analyzed using a MetaMorph Neurite Outgrowth Application Module (Molecular Devices Japan K.K.). The number of cells was defined as the relative cell number, taking the number of cells per well containing DMSO as 1. The relative activity of each compound when the maximum activity of 3-(15-methoxypentadecyl)-2,4,4-trimethylcyclohexa-2-en-1-one (compound 24) in each test was defined as 1 is shown (Table 9). For the compounds for which multiple tests were conducted, the average value was shown. Data with a number of cells of 0.5 or more was also used. Accordingly, if the number of cells was less than 0.5, the neurite length per cell and the proportion of neurite-bearing cells were defined as “-”.

Number of cells (1 μM compound) | Number of cells (3 μM compound) | Number of cells (5 μM compound) | Number of cells (10 μM compound) | Number of cells (30 μM compound) | Number of cells (100 μM compound) | Compound | viability at 1 µM [%] | viability at 3 µM [%] | viability at 5 µM [%] | viability at 10 µM [%] | viability at 30 µM [%] | viability at 100 µM [%]
 |  |  |  |  |  | CC1=C(CCCCCCCCCCCCCCCCOC(C)C)C(C)(C)CCC1=O [Compound 31, 3-(16-isopropoxyhexadecyl)-2,4,4-trimethylcyclohex-2-en-1-one] | 99 | 93 | 75 | 77 | 84 | 93
 |  |  |  |  |  | CCCCOCCCCCCCCCCCCCC1=C(C)C(=O)CCC1(C)C [Compound 20, 3-(13-butoxytridecyl)-2,4,4-trimethylcyclohex-2-en-1-one] | 110 | 110 | 96 | 90 | 113 | 117
 |  |  |  |  |  | CC1=C(CCCCCCCCCCCCCOC(C)C)C(C)(C)CCC1=O [Compound 18, 3-(13-isopropoxytridecyl)-2,4,4-trimethylcyclohex-2-en-1-one] | 116 | 106 | 89 | 97 | 95 | 89
 |  |  |  |  |  | CCOCCCCCCCCCCCCCCCC1=C(C)C(=O)CCC1(C)C [Compound 25, 3-(15-ethoxypentadecyl)-2,4,4-trimethylcyclohex-2-en-1-one] | 97 | 103 | 97 | 97 | 98 | 94
 |  |  |  |  |  | CCCOCCCCCCCCCCCCC1=C(C)C(=O)CCC1(C)C [Compound 14, 2,4,4-trimethyl-3-(12-propoxydodecyl)cyclohex-2-en-1-one] | 98 | 98 | 91 | 95 | 95 | 75
 |  |  |  |  |  | COCCCCCCCCCCCCCCCC1=CC(=O)CCC12CC2 [Compound 43, 4-(15-methoxypentadecyl)spiro[2,5]oct-4-en-6-one] | 97 | 97 | 85 | 86 | 96 | 101
 |  |  |  |  |  | COCCCCCCCCCCCCCC1=C(C)C(=O)CCC1(C)C [Compound 16, 3-(13-methoxytridecyl)-2,4,4-trimethylcyclohex-2-en-1-one] | 89 | 88 | 71 | 68 | 69 | 77
0.74 | 0.75 | 0.71 | 0.73 | 0.60 | 0.26 | CC1=C(CCCCCCCCCCCCCCC(N)=O)C(C)(C)CC1=O [Compound 74, 15-(2,5,5-trimethyl-3-oxocyclopent-1-en-1-yl)pentadecanamide] |  |  |  |  |  | 
 |  |  |  |  |  | CC1=C(CCCCCCCCCCCCCCCO)CCCC1=O [Compound 7, 3-(15-hydroxypentadecyl)-2-methylcyclohex-2-en-1-one, reference compound] | 100 | 100 | 87 | 86 | 17 | 19
 |  |  |  |  |  | CC1=C(CCCCCCCCCCCCCCCOC(=O)N(C)C)C(C)(C)CCC1=O [Compound 36, 15-(2,6,6-trimethyl-3-oxocyclohex-1-en-1-yl)pentadecyl dimethylcarbamate] | 91 | 107 | 97 | 94 | 98 | 86
 |  |  |  |  |  | CCC1=C(CCCCCCCCCCCCCCCOC)C(C)(C)CCC1=O [Compound 60, 2-ethyl-3-(15-methoxypentadecyl)-4,4-dimethylcyclohex-2-en-1-one] | 90 | 91 | 80 | 78 | 34 | 79
 |  |  |  |  |  | CC1=C(CCCCCCCCCCCCOC(C)C)C(C)(C)CCC1=O [Compound 13, 3-(12-isopropoxydodecyl)-2,4,4-trimethylcyclohex-2-en-1-one] | 91 | 87 | 75 | 73 | 34 | 18
0.80 | 0.93 | 0.96 | 0.88 | 0.96 | 0.53 | COCCCCCCCCCCCCCCCC1=C(C)CCCC1(C)C [Compound 64, 2-(15-methoxypentadecyl)-1,3,3-trimethylcyclohex-1-ene] |  |  |  |  |  | 
 |  |  |  |  |  | CCOCCCCCCCCCCCCCCC1=C(C)C(=O)CCC1(C)C [Compound 22, 3-(14-ethoxytetradecyl)-2,4,4-trimethylcyclohex-2-en-1-one] | 114 | 103 | 94 | 103 | 99 | 97
 |  |  |  |  |  | COCCCCCCCCCCCCCCC1=C(C)C(=O)CCC1(C)C [Compound 21, 3-(14-methoxytetradecyl)-2,4,4-trimethylcyclohex-2-en-1-one] | 104 | 111 | 102 | 103 | 82 | 96
 |  |  |  |  |  | COCCCCCCCCCCCCC1=C(C)C(=O)CCC1(C)C [Compound 11, 3-(12-methoxydodecyl)-2,4,4-trimethylcyclohex-2-en-1-one] | 96 | 96 | 83 | 82 | 62 | 70
 |  |  |  |  |  | CC1=C(CCCCCCCCCCCCCCCOCc2ccccc2)C(C)(C)CCC1=O [Compound 52, 3-(15-(benzyloxy)pentadecyl)-2,4,4-trimethylcyclohex-2-en-1-one] | 105 | 100 | 95 | 96 | 90 | 96
0.89 | 0.89 | 0.75 | 0.80 | 0.70 | 0.47 | COCCCCCCCCCCCCCCCC1=C(C)C(=O)CC1(C)C [Compound 69, 3-(15-methoxypentadecyl)-2,4,4-trimethylcyclopent-2-en-1-one] |  |  |  |  |  | 
 |  |  |  |  |  | CNC(=O)OCCCCCCCCCCCCCCCC1=C(C)C(=O)CCC1(C)C [Compound 55, 15-(2,6,6-trimethyl-3-oxocyclohex-1-en-1-yl)pentadecylmethylcarbamate] | 105 | 102 | 85 | 85 | 69 | 25
 |  |  |  |  |  | CC1=C(CCCCCCCCCCCCCCC(=O)N(C)C)C(C)(C)CCC1=O [Compound 54, N,N-dimethyl-15-(2,6,6-trimethyl-3-oxocyclohex-1-en-1-yl)pentadecanamide] | 93 | 112 | 87 | 90 | 4 | 5
 |  |  |  |  |  | COCCCCCCCCCCCCCCCC1=C(I)C(=O)CCC1(C)C [Compound 40, 2-iodo-3-(15-methoxypentadecyl)-4,4-dimethylcyclohex-2-en-1-one] | 94 | 104 | 97 | 93 | 103 | 98
0.84 | 0.85 | 0.78 | 0.80 | 0.41 | 0.38 | COCCCCCCCCCCCCCCC1=C(C)C(=O)CC1(C)C [Compound 72, 3-(14-methoxytetradecyl)-2,4,4-trimethylcyclopent-2-en-1-one] |  |  |  |  |  | 
 |  |  |  |  |  | CC1=C(CCCCCCCCCCCCCCO)C(C)(C)CCC1=O [Compound 3, 3-(14-hydroxytetradecyl)-2,4,4-trimethylcyclohex-2-en-1-one, reference compound] | 98 | 105 | 110 | 108 | 11 | 13
 |  |  |  |  |  | COCCCCCCCCCCCCCCCC1=CC(=O)CCC1(C)C [Compound 39, 3-(15-methoxypentadecyl)-4,4-dimethylcyclohex-2-en-1-one] | 83 | 100 |  | 97 | 97 | 49
